Measured values as given in ChEMBL document CHEMBL3044836, “Synthesis, antimicrobial and cytotoxic activities of novel 4-trifluoromethyl-(1,2,3)-thiadiazolo-5-carboxylic acid hydrazide Schiffs bases” (Med Chem Res, 2013).
Values after ≈ are worked out from the molar mass of the structure shown.

Assays:
Format in all cases: functional
Diutina rugosa [1] = assay: Antifungal activity against Candida rugosa NCIM 3462 assessed as growth inhibition at 100 ug/ml after 48 hr by agar cup diffusion method; details: NCIM 3462, 48 h, read-out: DIZ
Staphylococcus aureus = assay: Antibacterial activity against Staphylococcus aureus MTCC 96 assessed as growth inhibition by broth dilution method
Klebsiella pneumoniae = assay: Antibacterial activity against Klebsiella pneumoniae assessed as growth inhibition by broth dilution method
Saccharomyces cerevisiae [2] = assay: Antifungal activity against Saccharomyces cerevisiae MTCC 36 assessed as growth inhibition at 100 ug/ml after 48 hr by agar cup diffusion method; details: MTCC 36, 48 h, read-out: DIZ
[3] = test system: Staphylococcus epidermidis; assay: Antibacterial activity against Staphylococcus epidermidis MTCC 435 assessed as growth inhibition by broth dilution method; details: read-out: MIC
Candida albicans [4] = assay: Antifungal activity against Candida albicans MTCC 227 assessed as growth inhibition at 150 ug/ml after 48 hr by agar cup diffusion method; details: MTCC 227, 48 h, read-out: DIZ
Bacillus subtilis = assay: Antibacterial activity against Bacillus subtilis MTCC 441 assessed as growth inhibition by broth dilution method; details: read-out: MIC
Candida albicans [5] = assay: Antifungal activity against Candida albicans MTCC 227 assessed as growth inhibition at 100 ug/ml after 48 hr by agar cup diffusion method; details: MTCC 227, 48 h, read-out: DIZ
Aspergillus niger [6] = assay: Antifungal activity against Aspergillus niger MTCC 1344 assessed as growth inhibition at 100 ug/ml after 48 hr by agar cup diffusion method; details: MTCC 1344, 48 h, read-out: DIZ
Escherichia coli = assay: Antibacterial activity against Escherichia coli MTCC 443 assessed as growth inhibition by broth dilution method
Pseudomonas aeruginosa = assay: Antibacterial activity against Pseudomonas aeruginosa MTCC 741 assessed as growth inhibition by broth dilution method
Aspergillus niger [7] = assay: Antifungal activity against Aspergillus niger MTCC 1344 assessed as growth inhibition at 150 ug/ml after 48 hr by agar cup diffusion method; details: MTCC 1344, 48 h, read-out: DIZ
Diutina rugosa [8] = assay: Antifungal activity against Candida rugosa NCIM 3462 assessed as growth inhibition at 150 ug/ml after 48 hr by agar cup diffusion method; details: NCIM 3462, 48 h, read-out: DIZ
Saccharomyces cerevisiae [9] = assay: Antifungal activity against Saccharomyces cerevisiae MTCC 36 assessed as growth inhibition at 150 ug/ml after 48 hr by agar cup diffusion method; details: MTCC 36, 48 h, read-out: DIZ
MCF7 = assay: Cytotoxicity against Homo sapiens (human) MCF7 cells assessed as cell viability at 10 uM after 48 hr by MTT assay relative to control; details: MCF7, 48 h, read-out: Activity
MDA-MB-231 = assay: Cytotoxicity against Homo sapiens (human) MDA-MB-231 cells assessed as cell viability at 10 uM after 48 hr by MTT assay relative to control; details: MDA-MB-231, 48 h, read-out: Activity

`O=C(N/N=C/c1ccc([N+](=O)[O-])cc1)c1snnc1C(F)(F)F` showed a zone of inhibition at 100 µg/mL (Diutina rugosa [1]) of 0 mm, an MIC (Staphylococcus aureus; read-out: MIC) of 150 µg/mL (≈ 434 µM) and an MIC (Klebsiella pneumoniae; read-out: MIC) of 150 µg/mL (≈ 434 µM). For the same compound, the zone of inhibition at 100 µg/mL (Saccharomyces cerevisiae [2]) was 0 mm, the MIC [3] was 150 µg/mL (≈ 434 µM) and the zone of inhibition at 150 µg/mL (Candida albicans [4]) was 0 mm. For the same compound, the MIC (Bacillus subtilis) was 150 µg/mL (≈ 434 µM), the zone of inhibition at 100 µg/mL (Candida albicans [5]) was 0 mm and the zone of inhibition at 100 µg/mL (Aspergillus niger [6]) was 0 mm. For the same compound, the MIC (Escherichia coli; read-out: MIC) was 150 µg/mL (≈ 434 µM), the MIC (Pseudomonas aeruginosa; read-out: MIC) was 150 µg/mL (≈ 434 µM) and the zone of inhibition at 150 µg/mL (Aspergillus niger [7]) was 0 mm. The zone of inhibition at 150 µg/mL (Diutina rugosa [8]) was 0 mm and the zone of inhibition at 150 µg/mL (Saccharomyces cerevisiae [9]) was 0 mm.
With `CN(C)c1ccc(/C=N/NC(=O)c2snnc2C(F)(F)F)cc1` the zone of inhibition at 100 µg/mL (Diutina rugosa [1]) was 0 mm, the MIC (Staphylococcus aureus; read-out: MIC) was 150 µg/mL (≈ 437 µM) and the MIC (Klebsiella pneumoniae) was over 150 µg/mL. The zone of inhibition at 100 µg/mL (Saccharomyces cerevisiae [2]) was 0 mm, the MIC [3] was 150 µg/mL (≈ 437 µM) and the zone of inhibition at 150 µg/mL (Candida albicans [4]) was 0 mm. It also gave an MIC (Bacillus subtilis) of 150 µg/mL (≈ 437 µM), a zone of inhibition at 100 µg/mL (Candida albicans [5]) of 0 mm and a zone of inhibition at 100 µg/mL (Aspergillus niger [6]) of 0 mm. The MIC (Escherichia coli) was over 150 µg/mL, the MIC (Pseudomonas aeruginosa; read-out: MIC) was 150 µg/mL (≈ 437 µM) and the zone of inhibition at 150 µg/mL (Aspergillus niger [7]) was 0 mm. It also gave a zone of inhibition at 150 µg/mL (Diutina rugosa [8]) of 0 mm and a zone of inhibition at 150 µg/mL (Saccharomyces cerevisiae [9]) of 0 mm.
With `O=C(N/N=C/c1ccc(O)cc1)c1snnc1C(F)(F)F` the zone of inhibition at 100 µg/mL (Diutina rugosa [1]) was 0 mm, the MIC (Staphylococcus aureus; read-out: MIC) was 150 µg/mL (≈ 474 µM) and the MIC (Klebsiella pneumoniae) was over 150 µg/mL. It also gave a zone of inhibition at 100 µg/mL (Saccharomyces cerevisiae [2]) of 0 mm, an MIC [3] of 150 µg/mL (≈ 474 µM) and a zone of inhibition at 150 µg/mL (Candida albicans [4]) of 0 mm. It also gave an MIC (Bacillus subtilis) of 150 µg/mL (≈ 474 µM), a zone of inhibition at 100 µg/mL (Candida albicans [5]) of 0 mm and a zone of inhibition at 100 µg/mL (Aspergillus niger [6]) of 0 mm. The MIC (Escherichia coli; read-out: MIC) was 150 µg/mL (≈ 474 µM), the MIC (Pseudomonas aeruginosa) was over 150 µg/mL and the zone of inhibition at 150 µg/mL (Aspergillus niger [7]) was 0 mm. It also gave a zone of inhibition at 150 µg/mL (Diutina rugosa [8]) of 0 mm and a zone of inhibition at 150 µg/mL (Saccharomyces cerevisiae [9]) of 0 mm.
In the case of `COc1ccc(/C=N/NC(=O)c2snnc2C(F)(F)F)cc1`, the zone of inhibition at 100 µg/mL (Diutina rugosa [1]) is reported as 0 mm, the viability at 10 µM (MCF7) is reported as 101% and the MIC (Staphylococcus aureus) is reported as over 150 µg/mL. The MIC (Klebsiella pneumoniae; read-out: MIC) was 150 µg/mL (≈ 454 µM), the zone of inhibition at 100 µg/mL (Saccharomyces cerevisiae [2]) was 0 mm and the MIC [3] was 150 µg/mL (≈ 454 µM). The zone of inhibition at 150 µg/mL (Candida albicans [4]) was 0 mm, the MIC (Bacillus subtilis) was 150 µg/mL (≈ 454 µM) and the zone of inhibition at 100 µg/mL (Candida albicans [5]) was 0 mm. It also gave a zone of inhibition at 100 µg/mL (Aspergillus niger [6]) of 0 mm, an MIC (Escherichia coli; read-out: MIC) of 150 µg/mL (≈ 454 µM) and a viability at 10 µM (MDA-MB-231) of 87.3%. For the same compound, the MIC (Pseudomonas aeruginosa; read-out: MIC) was 150 µg/mL (≈ 454 µM), the zone of inhibition at 150 µg/mL (Aspergillus niger [7]) was 0 mm and the zone of inhibition at 150 µg/mL (Diutina rugosa [8]) was 0 mm. It also gave a zone of inhibition at 150 µg/mL (Saccharomyces cerevisiae [9]) of 0 mm.
In the case of `O=C(N/N=C/c1ccco1)c1snnc1C(F)(F)F`, the zone of inhibition at 100 µg/mL (Diutina rugosa [1]) is reported as 0 mm, the viability at 10 µM (MCF7) is reported as 100% and the MIC (Staphylococcus aureus; read-out: MIC) is reported as 150 µg/mL (≈ 517 µM). For the same compound, the MIC (Klebsiella pneumoniae; read-out: MIC) was 150 µg/mL (≈ 517 µM), the zone of inhibition at 100 µg/mL (Saccharomyces cerevisiae [2]) was 0 mm and the MIC [3] was 150 µg/mL (≈ 517 µM). It also gave a zone of inhibition at 150 µg/mL (Candida albicans [4]) of 0 mm, an MIC (Bacillus subtilis) of 150 µg/mL (≈ 517 µM) and a zone of inhibition at 100 µg/mL (Candida albicans [5]) of 0 mm. For the same compound, the zone of inhibition at 100 µg/mL (Aspergillus niger [6]) was 0 mm, the MIC (Escherichia coli; read-out: MIC) was 150 µg/mL (≈ 517 µM) and the viability at 10 µM (MDA-MB-231) was 89.5%. It also gave an MIC (Pseudomonas aeruginosa; read-out: MIC) of 150 µg/mL (≈ 517 µM), a zone of inhibition at 150 µg/mL (Aspergillus niger [7]) of 0 mm and a zone of inhibition at 150 µg/mL (Diutina rugosa [8]) of 0 mm. The zone of inhibition at 150 µg/mL (Saccharomyces cerevisiae [9]) was 0 mm.
With `O=C(N/N=C/c1cccs1)c1snnc1C(F)(F)F` the zone of inhibition at 100 µg/mL (Diutina rugosa [1]) was 0 mm, the viability at 10 µM (MCF7) was 102% and the MIC (Staphylococcus aureus; read-out: MIC) was 150 µg/mL (≈ 490 µM). It also gave an MIC (Klebsiella pneumoniae; read-out: MIC) of 150 µg/mL (≈ 490 µM), a zone of inhibition at 100 µg/mL (Saccharomyces cerevisiae [2]) of 0 mm and an MIC [3] of 150 µg/mL (≈ 490 µM). It also gave a zone of inhibition at 150 µg/mL (Candida albicans [4]) of 0 mm, an MIC (Bacillus subtilis) of 150 µg/mL (≈ 490 µM) and a zone of inhibition at 100 µg/mL (Candida albicans [5]) of 0 mm. The zone of inhibition at 100 µg/mL (Aspergillus niger [6]) was 0 mm, the MIC (Escherichia coli; read-out: MIC) was 150 µg/mL (≈ 490 µM) and the viability at 10 µM (MDA-MB-231) was 91.9%. It also gave an MIC (Pseudomonas aeruginosa) of over 150 µg/mL, a zone of inhibition at 150 µg/mL (Aspergillus niger [7]) of 0 mm and a zone of inhibition at 150 µg/mL (Diutina rugosa [8]) of 0 mm. For the same compound, the zone of inhibition at 150 µg/mL (Saccharomyces cerevisiae [9]) was 0 mm.
Compound `C/C(=N\NC(=O)c1snnc1C(F)(F)F)c1ccccc1` has a zone of inhibition at 100 µg/mL (Diutina rugosa [1]) of 0 mm, a viability at 10 µM (MCF7) of 115% and an MIC (Staphylococcus aureus) of over 150 µg/mL. For the same compound, the MIC (Klebsiella pneumoniae; read-out: MIC) was 150 µg/mL (≈ 477 µM), the zone of inhibition at 100 µg/mL (Saccharomyces cerevisiae [2]) was 0 mm and the MIC [3] was 150 µg/mL (≈ 477 µM). It also gave a zone of inhibition at 150 µg/mL (Candida albicans [4]) of 0 mm, an MIC (Bacillus subtilis) of 150 µg/mL (≈ 477 µM) and a zone of inhibition at 100 µg/mL (Candida albicans [5]) of 0 mm. For the same compound, the zone of inhibition at 100 µg/mL (Aspergillus niger [6]) was 0 mm, the MIC (Escherichia coli) was over 150 µg/mL and the viability at 10 µM (MDA-MB-231) was 94.5%. It also gave an MIC (Pseudomonas aeruginosa; read-out: MIC) of 150 µg/mL (≈ 477 µM), a zone of inhibition at 150 µg/mL (Aspergillus niger [7]) of 0 mm and a zone of inhibition at 150 µg/mL (Diutina rugosa [8]) of 0 mm. The zone of inhibition at 150 µg/mL (Saccharomyces cerevisiae [9]) was 0 mm.
Work on `CC1(C)S[C@@H]2[C@H](NC(=O)Cc3ccccc3)C(=O)N2[C@H]1C(=O)O` [PENICILLIN G] yielded an MIC (Staphylococcus aureus; read-out: MIC) of 1.56 µg/mL (≈ 4.67 µM), an MIC (Klebsiella pneumoniae; read-out: MIC) of 6.25 µg/mL (≈ 18.7 µM) and an MIC [3] of 3.12 µg/mL (≈ 9.35 µM). The MIC (Bacillus subtilis) was 1.56 µg/mL (≈ 4.67 µM), the MIC (Escherichia coli; read-out: MIC) was 12.5 µg/mL (≈ 37.4 µM) and the MIC (Pseudomonas aeruginosa; read-out: MIC) was 12.5 µg/mL (≈ 37.4 µM).
For `CN[C@@H]1[C@H](O[C@H]2[C@H](O[C@H]3[C@H](O)[C@@H](O)[C@H](N=C(N)N)[C@@H](O)[C@@H]3N=C(N)N)O[C@@H](C)[C@]2(O)C=O)O[C@@H](CO)[C@H](O)[C@H]1O` [STREPTOMYCIN], the MIC (Staphylococcus aureus; read-out: MIC) was 6.25 µg/mL (≈ 10.7 µM), the MIC (Klebsiella pneumoniae; read-out: MIC) was 3.12 µg/mL (≈ 5.37 µM) and the MIC [3] was 3.12 µg/mL (≈ 5.37 µM). It also gave an MIC (Bacillus subtilis) of 6.25 µg/mL (≈ 10.7 µM), an MIC (Escherichia coli; read-out: MIC) of 6.25 µg/mL (≈ 10.7 µM) and an MIC (Pseudomonas aeruginosa; read-out: MIC) of 1.56 µg/mL (≈ 2.69 µM).
